Series [1] can be described thus: Hygroscopic property: weight change on storage in a desiccator. Type of series: physicochemical. The note with it: 20° C. How it is done: Each of the samples of the monohydrate of the present invention was put in a desiccator adjusted at a relative humidity of 57% or 98%, and then stored at 20° C. for 16 days. Weight changes during the period of time were measured. As controls, the anhydrous crystals obtained in the above process (a) in Example 1 were also stored in a desiccator adjusted at a relative humidity of 57% or 98%, and weight changes were measured. The results are shown in Table 2 [in the table, each of the values (%) represents a weight increase]. […] On the other hand, as for the anhydrous crystal, the weight increase of about 7% was observed, which corresponded to about 1 mole of the water of crystal.

The nature of series [2]: Thermal analysis (TG-DTA). Type of series: physicochemical. The following applies: dry nitrogen, 5° C./min. How it is done: The anhydrous crystal described in Example 1 of the Japanese Patent Unexamined Publication (KOKAI) No.(Hei)3-7263/1991 and the monohydrate of the present invention were subjected to thermal analysis by a thermal analyzer (RIGAKU TAS-200) under dry nitrogen atmosphere using each of 10 mg of samples. The measurements were carried out in the temperature range of from 50 to 400° C. applying the temperature raising rate of 5° C./min. As the anhydrous crystals, those obtained in the above process (a) was used.

The conditions of series [3]: rat, in vivo. How it is done: Using these values of AUC(0-.infin.) and the doses applied, the bioavailability was calculated according to the following Equation 1. [formula]
The nature of series [4]: Weight and appearance on further drying. Type of series: physicochemical. The note with it: further 27 hours, 50° C., 90 mmHg. How it is done: The anhydrous crystal of 5-Methyl-2-(1-piperazinyl) benzenesulfonic acid (10.00 g) and distilled water (30 ml) were added in a 100 ml round-bottomed flask and the mixture was stirred at 5° C. for 2 hours. The crystals were collected from the suspension by suction filtration and the crystals remained in the round-bottomed flask were recovered by washing with distilled water (3 ml). The crystals were combined and dried at 50° C. and 90 mmHg for 3 hours to give 5-methyl-2-(1-piperazinyl)benzenesulfonic acid monohydrate as white crystals (10.36 g, yield: 96.8%). After drying was further continued for 27 hours under the same conditions, the weight and appearance of the monohydrate were not changed. Water content measured by a Karl Fischer water content meter was 6.96%, which further verified that the product was the monohydrate (calculated content: 6.56%).
The anhydrous crystal of 5-Methyl-2-(1-piperazinyl) benzenesulfonic acid (10.00 g) and distilled water (75 ml) were charged in a 200 ml round-bottomed flask and the crystals were thoroughly dissolved by heating under reflux with stirring. The solution was then cooled to 5° C. with stirring and stirring was further continued for 2 hours at the same temperature. […] Water content measured by a Karl Fischer water content meter was 6.75%, which further verified that the product was the monohydrate. […]

A short description of series [5]: Stability and release of water of crystal of the monohydrate. The format is physicochemical. The note with it: for stability (in words): long period / room temperature / once formed, monohydrate.
The conditions of series [6]: rat, in vivo. The source holds these as a separate data set.
A further series has as its system cardiac muscle cells. The note with it: cited from earlier work.
Series [7] in a line: Serum concentration (2): serum radioactivity after oral administration at several doses. The note with it: male rats, Mean ± S.D (n = 5).

“Also recorded” adds a separate entry of the source. Like-named read-outs stand apart in the source and are kept apart here.

What is called bioavailability is dose-corrected exposure relative to a reference, in per cent. As usually defined, the AUC is concentration integrated over time.

On to `Cc1ccc(N2CCNCC2)c(S(=O)(=O)O)c1` [Anhydrous crystal, 2-(1-piperazinyl)-5-methylbenzenesulfonic acid, reference compound], for which, in series [1] (57% RH), the “weight increase, 0 day” value was determined as 0.00%; the “weight increase, 1 day” value worked out at 6.99%; the “weight increase, 3 days” value was found to be 7.08%; the “weight increase, 16 days” value stood at 6.89%. Besides, in series [1] (57% and 98% RH, 16 days, about 1 mole of water of crystal), the “weight increase” value was “about 7%”. In series [1] (98% RH), the “weight increase, 0 day” value came out at 0.00%; the “weight increase, 1 day” value worked out at 7.35%; the “weight increase, 3 days” value came out at 7.36%; the “weight increase, 16 days” value was determined as 7.12%. In series [2] (below 100° C.), the “weight loss or thermal absorption peak due to release of the water of crystal (in words)” value is listed as “no weight loss or no thermal absorption peak”. For the same molecule, in series [3] (po, 0.94 mg/kg), the “bioavailability, maximum value of fluctuation” value was determined as 43.72% and the “bioavailability, minimum value of fluctuation” value is 33.03%.

Consider `Cc1ccc(N2CCNCC2)c(S(=O)(=O)O)c1.O` [Monohydrate, 5-methyl-2-(1-piperazinyl)benzenesulfonic acid monohydrate], for which, in series [1] (57% RH), the “weight increase, 0 day” value worked out at 0.00%; the “weight increase, 1 day” value stood at 0.11%; the “weight increase, 3 days” value is reported as 0.20%; the “weight increase, 16 days” value was determined as 0.21%. Moreover, in series [1] (57% and 98% RH, 16 days), the “weight change (in words)” value is listed as “No substantial weight change”. In addition, in series [1] (98% RH), the “weight increase, 0 day” value was determined as 0.00%; the “weight increase, 1 day” value is recorded as 0.28%; the “weight increase, 3 days” value is on record as 0.40%; the “weight increase, 16 days” value was found to be 0.39%. In series [2], the “temperature from which weight loss and thermal absorption peak due to release of the water of crystal were observed” value is “around 60 °C”. In addition, in series [2] (50 to 400° C.), the “weight loss due to release of the water of crystal” value was 6.57%. Moreover, the “weight and appearance after further drying” value in series [4] is “not changed”. The bioavailability in series [3] (po, 1 mg/kg) is 38%. For the same molecule, the “heating temperature at which water of crystal is gradually released” value in series [5] (ambient or reduced pressure) was at least 60 °C. Besides, the “stability (in words)” value in series [5] (listed as monohydrate of 2-(1-piperazinyl)-5-methylbenzenesulfonic acid) was “stable at room temperature for a long period of time”. The “stability (in words)” value in series [5] was “stable and free from weight variation by hygroscopicity; also recorded: stable for a long period of time”. Besides, the “serum concentration versus dose (in words)” value in series [6] was “linear direct proportion to the dose of administration”.

Take `Cc1ccc(N2CCNCC2)c(S(=O)(=O)O)c1` [Compound 2, 2-(1-piperazinyl)-5-methylbenzenesulfonic acid]: in the series on cardiac muscle cells, the “inhibition of the inflow of calcium ions into cardiac muscle cells (in words)” value is “remarkably inhibits”.

As to `Cc1ccc(N2CCNCC2)c(S(=O)(=O)O)c1` [labeled compound, labeled 2-(1-piperazinyl)-5-methylbenzenesulfonic acid monohydrate], the “AUC(0-.infin.)” value stood at 816.28 ng eq·h/ml in series [3] (iv, 0.3 mg/kg) and 1039.86 ng eq·h/ml in series [3] (po, 1 mg/kg). The AUC is 64.1 ± 12.3 ng·h/mL in series [7] (oral 0.1 mg/kg), 270.5 ± 88.4 ng·h/mL in series [7] (oral 0.3 mg/kg), 574.4 ± 113.2 ng·h/mL in series [7] (oral 1 mg/kg) and 1769.2 ± 498.4 ng·h/mL in series [7] (oral 3 mg/kg). Besides, the C max in series [7] (oral 0.1 mg/kg) stood at 16.2 ± 2.6 ng/mL; in series [7] (oral 0.3 mg/kg) it was 69.0 ± 17.8 ng/mL; in series [7] (oral 1 mg/kg), 171.6 ± 31.1 ng/mL; in series [7] (oral 3 mg/kg), 501.5 ± 133.8 ng/mL. Further, the T max in series [7] (oral 0.1 mg/kg) was 2.2 ± 0.5 h; in series [7] (oral 0.3 mg/kg), 2.2 ± 0.5 h; in series [7] (oral 1 mg/kg), 1.8 ± 0.5 h; in series [7] (oral 3 mg/kg) it was 2.0 ± 0.0 h. Also, the “t 1/2” value came out at 1.77 ± 0.34 h in series [7] (oral 0.1 mg/kg), 1.33 ± 0.09 h in series [7] (oral 0.3 mg/kg), 1.64 ± 0.17 h in series [7] (oral 1 mg/kg) and 1.30 ± 0.08 h in series [7] (oral 3 mg/kg).

These data come from US5990113A, “Monohydrates of aminobenzenesulfonic acid derivatives and method for preparing thereof” (priority 1995, dated 1999).
